Laboratory results: patent US9365553B2, “Heterocyclic compound and H1 receptor antagonist” (Aska Pharmaceutical Co., Ltd., priority 2010, dated 2016)

Columns and labels:
human H1 receptor = target: T1, human H1 receptor (Homo sapiens, UniProt P35367); experiment: Human H1 receptor affinity test (Test Example 2); assay type: binding; details: CHO cell membrane preparation expressing human H1 receptor, [3H]-pyrilamine 2 nmol/L
T1 construct: purchased; host or cells: CHO cells
Experimental: Chinese hamster ovarian cells (CHO cells) having human H1 receptor forcibly express were purchased and used as an H1 receptor membrane preparation. […] To the resulting each sample, 50 μL of 8 nmol/L [^3H]-pyrilamine (final concentration: 2 nmol/L) was added and mixed. […] The glass filter was cut off and transferred in a vial. To the vial was added 5 mL of a scintillator (manufactured by National Diagnostics), and the mixture was shaken for not less than one hour. Thereafter, the radioactive concentration was measured by a liquid scintillation counter.

rat H1 receptor = target: T2, rat H1 receptor (Rattus norvegicus, UniProt P31390); experiment: Rat H1 receptor affinity test (Test Example 1); assay type: binding; details: rat cerebrum membrane preparation, [3H]-pyrilamine 2 nmol/L
T2 construct: An H1 receptor membrane preparation was prepared from rat cerebrum; from tissue; host or cells: rat cerebrum
Experimental: An H1 receptor membrane preparation was prepared from rat cerebrum. […] To the resulting each sample, 50 μL of 8 nmol/L [^3H]-pyrilamine (manufactured by PerkinElmer) (final concentration: 2 nmol/L) was added and mixed. After the mixture was incubated at a room temperature for 30 minutes, the reaction solution was collected on a glass filter by a cell harvester (manufactured by Molecular Devices), and then the filter was washed with the incubation buffer. The glass filter was cut off and transferred in a vial. To the vial was added 5 mL of a scintillator (manufactured by National Diagnostics), and the mixture was shaken for not less than one hour. Thereafter, the radioactive concentration was measured by a liquid scintillation counter.

[1] = test system: histamine-induced skin reaction in mouse; experiment: Skin reaction test in mouse (Test Example 4); assay type: in vivo; details: oral, histamine 3 μg/50 μL/site intradermal, pigment area, read-out: Skin reaction test in mouse ID50
Experimental: (§1) Each mouse was sheared the day before test and fasted overnight. A low, middle or high dose of each test compound suspended in a 0.5% (W/V) CMC-Na aqueous solution was orally administered to the mouse. One hour after the administration, a 1% Evans Blue physiological saline solution (Tokyo Chemical Industry Co., Ltd.) was administered into the caudal vein in a dose of 10 mL/kg, and immediately histamine 3 μg/50 μL/site was intradermally administered into the dorsum. Thirty minutes after the administration, the mouse was anesthetized with diethyl ether and then euthanized by cervical dislocation. The skin was ablated, and the major axis and minor axis of a spot of the pigment exuded into the skin were measured to calculate the area of the pigment.

[2] = test system: histamine-induced skin reaction in rat; experiment: Histamine-induced skin reaction test in rat (Test Example 3); assay type: in vivo; details: oral, histamine 10 μg/0.1 mL/site intradermal, pigment area, read-out: Skin reaction test in rat ID50
Experimental: as §1, with “Each mouse was sheared the day before test and fasted overnight. A low, middle or high dose of each test compound suspended in a 0.5% (W/V) CMC-Na aqueous solution was orally administered to the mouse.” left out, “5” for “10”, “10 μg/0.1 mL/site (manufactured by Wako Pure Chemical Industries, Ltd.)” for “3 μg/50 μL/site”, “rat” for “mouse”

[3] = test system: mouse IgE-dependent ear edema model; experiment: Inhibitory effects on mouse IgE-dependent ear edema model (Test Example 5); assay type: in vivo; details: oral twice a day, dose one-third of ID50 (Dose column of Table D); for Inhibitory effects in each allergic reaction phase: Immediate phase: mouse ear swelling 1 hour after antigen; for Inhibitory effects in each allergic reaction phase: Late phase: mouse ear swelling 24 hours after antigen; for Inhibitory effects in each allergic reaction phase: Very late phase: mouse ear swelling 7 days after antigen;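 as to all read-outs here: doses given 1 h before and 6 h after antigen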
Experimental: (§2) To each mouse, 0.25 mL of an anti-DNP-IgE antibody (manufactured by SIGMA-ALDRICH) was intravenously administered for passive sensitization. On the day following the administration, an antigen (DNFB solution; manufactured by Wako Pure Chemical Industries, Ltd.) was applied on the right ear to induce dermatitis (ear swelling). One hour, 24 hours and 7 days after the application of the antigen, the thickness of the right ear was measured by a thickness measuring apparatus (dial thickness gauge). […] The thickness of the right ear before the sensitization was measured beforehand; the inhibition rates of the swelling in immediate phase, late phase, and very late phase were calculated.

[4] = test system: mouse IgE-dependent ear edema model; experiment: Inhibitory effects on mouse IgE-dependent ear edema model (Test Example 8); assay type: in vivo; details: oral twice a day, dose a multiple of mouse ID50 (Dose column of Table E); for Inhibitory effects in each allergic reaction phase: Immediate phase: mouse ear swelling 1 hour after antigen; for Inhibitory effects in each allergic reaction phase: Late phase: mouse ear swelling 24 hours after antigen; for Inhibitory effects in each allergic reaction phase: Very late phase: mouse ear swelling 7 days after antigen;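 as to all read-outs here: 5 or 10 times the mouse skin-reaction ID50 per dose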
Experimental: as §2

T2 sequence (P31390 whole entry): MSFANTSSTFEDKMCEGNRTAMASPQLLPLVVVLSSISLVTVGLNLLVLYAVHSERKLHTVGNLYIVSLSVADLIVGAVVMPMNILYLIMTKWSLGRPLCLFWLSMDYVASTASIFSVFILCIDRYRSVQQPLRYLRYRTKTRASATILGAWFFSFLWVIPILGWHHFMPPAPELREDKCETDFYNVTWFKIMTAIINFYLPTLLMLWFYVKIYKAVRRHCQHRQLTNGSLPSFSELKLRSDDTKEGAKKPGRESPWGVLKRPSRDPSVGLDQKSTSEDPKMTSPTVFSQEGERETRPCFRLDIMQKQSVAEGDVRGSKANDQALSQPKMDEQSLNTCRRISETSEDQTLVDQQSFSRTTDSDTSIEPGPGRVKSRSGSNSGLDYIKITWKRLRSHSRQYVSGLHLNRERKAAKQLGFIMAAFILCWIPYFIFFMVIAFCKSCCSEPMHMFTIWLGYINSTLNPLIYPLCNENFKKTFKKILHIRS
T1 sequence (P35367 whole entry): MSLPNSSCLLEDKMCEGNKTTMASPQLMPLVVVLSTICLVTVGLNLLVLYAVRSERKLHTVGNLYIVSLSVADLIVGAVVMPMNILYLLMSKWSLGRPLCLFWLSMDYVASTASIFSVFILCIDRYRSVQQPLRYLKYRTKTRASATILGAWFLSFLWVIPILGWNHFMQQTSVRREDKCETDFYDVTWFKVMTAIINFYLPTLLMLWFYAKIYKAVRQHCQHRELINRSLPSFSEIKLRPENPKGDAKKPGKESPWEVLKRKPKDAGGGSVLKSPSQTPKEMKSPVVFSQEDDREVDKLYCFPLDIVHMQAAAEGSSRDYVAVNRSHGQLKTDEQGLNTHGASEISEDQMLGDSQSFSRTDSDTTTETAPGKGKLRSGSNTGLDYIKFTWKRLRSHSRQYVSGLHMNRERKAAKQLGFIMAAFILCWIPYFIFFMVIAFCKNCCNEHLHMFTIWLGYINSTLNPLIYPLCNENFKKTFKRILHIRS

Row | SMILES | IC50 (human H1 receptor) [nM] | IC50 (rat H1 receptor) [nM] | ED50 [1] [mg/kg] | ED50 [2] [mg/kg] | Inhibitory effects in each allergic reaction phase: Immediate phase [3] | Inhibitory effects in each allergic reaction phase: Late phase [3] | Inhibitory effects in each allergic reaction phase: Very late phase [3] | Inhibitory effects in each allergic reaction phase: Immediate phase [4] | Inhibitory effects in each allergic reaction phase: Late phase [4] | Inhibitory effects in each allergic reaction phase: Very late phase [4]
1 | O=C(O)CCCN1CCC(O[C@@H](c2ccc(Cl)cc2)c2ccccn2)CC1 [Bepotastine] | 20 | 170 | 0.02 | 0.5 | – | – | – | – | – | –
2 | O=C(O)c1cc(CN2CCC(OC(c3ccccc3)c3ccccc3)CC2)cs1 [Example 5] | 10 | 7 | 0.11 | 1.8 | – | – | – | – | – | –
3 | O=C(O)c1cccc(CN2CCN(C(c3ccc(F)cc3)c3ccc(F)cc3)CC2)n1 [Example 11, 6-{4-[bis(4-fluorophenyl)methyl]piperazin-1-ylmethyl}pyridine-2-carboxylic acid] | 22 | 280 | 0.01 | 0.3 | ++ (++ Inhibitory rate 45 to 25%) | ++ (++ Inhibitory rate 45 to 25%) | ++ (++ Inhibitory rate 45 to 25%) | ++ (++ Inhibitory rate 45 to 20%) | ++ (++ Inhibitory rate 45 to 20%) | ++ (++ Inhibitory rate 45 to 20%)
4 | O=C(O)c1cccc(CN2CCC(OC(c3ccccc3)c3ccc(Cl)cc3)CC2)n1 (stereo not drawn) [Example 22] | 13 | 5.7 | 0.01 | 0.5 | – | – | – | – | – | –
5 | O=C(O)c1cccc(C(F)(F)N2CCC(OC(c3ccccc3)c3ccccc3)CC2)n1 [Example 37, 6-[(4-Benzhydryloxypiperidin-1-yl)difluoromethyl]pyridine-2-carboxylic acid] | 12 | 75 | 0.06 | 3.2 | – | – | – | – | – | –
6 | O=C(O)c1cccc(CN2CCC(=C3c4ccc(Cl)cc4CCc4cccnc43)CC2)c1 [Example 67, 3-[4-(8-Chloro-5,6-dihydrobenzo[5,6]cyclohepta[1,2-b]pyridin-11-ylidene)piperidin-1-ylmethyl]benzoic acid] | – | – | 0.09 | 1.2 | – | – | – | – | – | –
7 | CN(C)CC/C=C1/c2ccccc2COc2ccc(CC(=O)O)cc21 [Olopatadine] | – | – | – | – | ++ (++ Inhibitory rate 45 to 25%) | − (− Inhibitory rate less than 10%) | + (+ Inhibitory rate 24 to 10%) | ++ (++ Inhibitory rate 45 to 20%) | − (− Inhibitory rate less than 10%) | − (− Inhibitory rate less than 10%)

The next lines start with results.

Row | IC50 (human H1 receptor) [nM] | IC50 (rat H1 receptor) [nM] | SMILES | ED50 [1] [mg/kg] | ED50 [2] [mg/kg] | Inhibitory effects in each allergic reaction phase: Immediate phase [3] | Inhibitory effects in each allergic reaction phase: Late phase [3] | Inhibitory effects in each allergic reaction phase: Very late phase [3] | Inhibitory effects in each allergic reaction phase: Immediate phase [4] | Inhibitory effects in each allergic reaction phase: Late phase [4] | Inhibitory effects in each allergic reaction phase: Very late phase [4]
8 | 10 | 25 | O=C(O)c1cccc(CN2CCC(OC(c3ccccc3)c3ccccc3)CC2)n1 [Example 2, 6-(4-benzhydryloxypiperidin-1-ylmethyl)pyridine-2-carboxylic acid] | 0.1 | 3.4 | ++ (++ Inhibitory rate 45 to 25%) | ++ (++ Inhibitory rate 45 to 25%) | + (+ Inhibitory rate 24 to 10%) | ++ (++ Inhibitory rate 45 to 20%) | ++ (++ Inhibitory rate 45 to 20%) | + (+ Inhibitory rate 19 to 10%)
9 | 6.8 | 72 | O=C(O)c1ccnc(CN2CCC(OC(c3ccccc3)c3ccc(F)cc3)CC2)c1 (stereo not drawn) [Example 39] | 0.04 | 1.3 | ++ (++ Inhibitory rate 45 to 25%) | ++ (++ Inhibitory rate 45 to 25%) | ++ (++ Inhibitory rate 45 to 25%) | ++ (++ Inhibitory rate 45 to 20%) | ++ (++ Inhibitory rate 45 to 20%) | ++ (++ Inhibitory rate 45 to 20%)
10 | 25 | 53 | O=C(O)c1cccc(CN2CCC(OC(c3ccccc3)c3ccc(F)c(F)c3)CC2)n1 (stereo not drawn) [Example 48] | 0.05 | 2.9 | – | – | – | – | – | –
11 | 14 | 28 | O=C(O)c1cccc(CN2CCC(=C3c4ccccc4C=Cc4cccnc43)CC2)c1 [Example 70] | 0.12 | 1.6 | – | – | – | – | – | –
12 | 14 | 16 | O=C(O)c1cccc(CN2CCC(=C3c4ccccc4C=Cc4cccnc43)CC2)n1 [Example 71] | 0.07 | 0.6 | – | – | – | – | – | –
